# Measured values taken from US20260314597A1, “A NOVEL APPROACH TO INTERFERE IN THE PHENYLPROPANOID BIOSYNTHETIC PATHWAY TO REDUCE PINK-RIB DISORDER IN FRESH LETTUCE” (University of Florida Research Foundation, Inc., priority 2022, published 2026).
# “Also recorded” adds a separate entry of the source.
# Assays:
# [1] = test system: iceberg and Romaine lettuce midribs; assay: Visual (subjective) pink rib development in wounded, immersed lettuce midribs stored at 5° C.; format: in vivo; conditions: for effect on pink rib discoloration: iceberg and Romaine; for duration of inhibition of pink rib development: 30 s immersion, 5° C.
# Procedure: Six preliminary experiments were performed to determine treatment conditions for the three final experiments reported here. It was determined that the method developed by Cantwell (2016) induced pink rib discoloration in lettuce midribs during storage at 5° C. via mimicking mechanical damage and was, therefore, selected for use in all preliminary and final tests. […] Concentrations evaluated were: L-cysteine (0.4, 0.8, 2.1, 4.1, 8.3 mM), naringenin (0.2, 0.4, 0.9, 1.8, 3.7 mM), serotonin (2.8, 5.7 mM), and melatonin (0.2, 0.4, 1.1, 2.2, 4.3 mM) (data not presented). […] Therefore, this study employed the one or two concentrations for each compound with the greatest potential efficacy in three independent tests, Test 1 to 3 (Table 1).
# For Test 1, the evaluations for pink rib development, protein quantification, and enzyme activity were conducted with Romaine and iceberg lettuce heads (36 heads per type; cultivars unknown) purchased (February 2020) upon arrival at a local grocery store in Gainesville, FL, and immediately transported to the Postharvest Horticulture Laboratory at the University of Florida in Gainesville, FL. For Test 2, metabolite extraction and detection were conducted with commercially grown, harvested, and cooled Romaine (‘Tall Guzmaine’) and iceberg (‘Chosen’) lettuce (December 2020) grown in Belle Glade, FL. For Test 3, untargeted metabolomics was performed using commercially grown, harvested, and cooled Romaine (‘Manatee’) lettuce grown in Belle Glade, FL (April 2021). To keep the lettuce head samples cool while preventing freeze damage during transport, a 3- to 6-inch layer of crushed ice was placed on the bottom of each 114-L cooler. A piece of waxed, corrugated fiberboard was placed on top of the ice prior to packing with the lettuce samples for transport the same day to the Postharvest Horticulture Laboratory in Gainesville (approximately 4 h distant).
# (§1) In all tests, experimental setup began immediately upon arrival to the laboratory. 90 outer leaves were randomly selected from 18 to 22 lettuce heads that met commercial and damage-free quality standards. A midrib segment (12.5 cm) was excised from the center of each leaf and excess leaf blade tissue was trimmed parallel to the midrib. This procedure was adapted from the wounding procedure of Cantwell (2016). Each midrib was then partially sliced transversally at 1.3-cm increments along the midrib. Midribs (n=15) were immediately immersed for 30 s in one of five treatment solutions: deionized water (wounded control), L-cysteine (4.1 mM), naringenin (1.8 mM) with 20% dimethyl sulfoxide (DMSO), serotonin (2.8 or 5.7 mM) or melatonin (4.3 mM) with 0.50% DMSO. Immediately following immersion, the midribs for each treatment were patted dry using paper towels and placed (n=5) in a breathable, high-density polyethylene bag (n=3) (Narrow Profile Produce Bags [14×18 inches] Model No. S-19156, Uline®, Pleasant Prairie, WI). Unwounded control midribs were stored in the same manner. To allow for direct comparison, each cut site on each midrib was assigned an initial discoloration value on day 1 based on the coloration of the rib. Samples were stored at 5° C. with 95-98% relative humidity (RH) for 5 d, simulating commercial storage.
# All chemicals were of laboratory or reagent grade from Alfa Aesar (Thermo Fisher Scientific, Ward Hill, MA, USA) or Phyto Technology Laboratories (Shawnee Mission, KS, USA). L-cysteine (4.1 mM) solution was prepared by dissolving […] in 100 ml deionized water. Naringenin (1.8 mM) solution was prepared by dissolving […] in 20 mL of DMSO and diluting to a 100 mL volume with deionized water. A stock solution of serotonin (5.7 mM) was prepared by dissolving 100 mg of serotonin in 100 ml of deionized water; a second solution of serotonin (2.8 mM) was prepared by diluting the stock solution two-fold with deionized water. […]
# [2] = test system: chlorogenic acid formation in lettuce midribs; assay: Chlorogenic acid concentration in treated wounded midribs (HPLC); format: in vivo, lettuce (iceberg, Romaine); conditions: 5 d at 5° C.; for chlorogenic acid concentration: L-cysteine 4.1 mM or melatonin 4.3 mM; for effect on chlorogenic acid concentration: iceberg and Romaine, vs wounded
# Description: as §1
# Unwounded, wounded, and compound-treated wounded midrib samples were collected for untargeted metabolite analysis to identify global metabolite changes in response to melatonin application and targeted metabolite analysis to quantify chlorogenic acid a major caffeoyl compound in lettuce. For both targeted and untargeted metabolite analyses, fresh samples (500-800 mg) of the midribs from each treatment (n=3) were weighed, then immediately frozen in liquid nitrogen and stored at −80° C. for subsequent metabolite extraction. Frozen samples were extracted with a 50% methanol extraction solution containing a 1:1 (v:v) of methanol with deionized water. Samples were completely submerged in a 1:1.5 (w:v) of the sample weight (mg) to extraction solution volume (μL), respectively, and incubated at 65° C. for 90 min and then centrifuged at 9660×g for 10 min (MC-12 High Speed Micro Centrifuge, Benchmark Scientific, Edison, NJ). The supernatant was transferred to a new tube and filtered with a 0.45 μm filter (Choice, Thermo Scientific, Wilmington, DE). An aliquot of 400 μL was vacuum-dried.
# For chlorogenic acid quantification, vacuum-dried samples were resuspended with 50 μL of 50% methanol. A 10 μL volume of extract was analyzed on an UltiMate 3000 High Performance Liquid Chromatography (HPLC) system (Thermo Fisher Scientific, Ward Hill, MA, USA) equipped with a diode array detector (DAD) in the UV-VIS region 200 to 500 nm. The compounds were separated on an Acclaim™ RSLC PA2 column (150 mm×2.1 mm; 2.2 μm) (Thermo Fisher Scientific, Ward Hill, MA, USA) coupled with a C18 guard column (10 mm×3 mm; 5 μm). The mobile phase consisted of solvent A (0.1% formic acid (v/v) in water) and solvent B (100% acetonitrile), and the gradient as follows: 5% to 20% increase of solvent B at 0.3 to 0.4 min, 20% to 25% increase solvent B at 5.25 to 12.5 min, 25% to 95% increase solvent B at 12.5 to 16.5 min, and 95% solvent B at 16.5 to 20 min. The flow rate was 0.4 mL min^−1 and the column temperature was 40° C. The level of chlorogenic acid was quantified based on the peak area at 328 nm and the standard curve using authentic standard (Sigma Aldrich; St. Louis, MO, USA).
# The imaging data (a* value), enzyme activity (PAL and PPO), and metabolite (chlorogenic acid) results were expressed as mean±standard error and analyzed by lettuce type (iceberg or Romaine). For imaging data, an unpaired t-test was used to identify differences within a treatment throughout storage and among treatment groups at each time point. Treatment groups were defined as wounded, unwounded, L-cysteine, and melatonin. […]
Compound,"effect on pink rib discoloration ([1]; L-cysteine 4.1 mM, up to 5 d at 5° C., vs wounded control)",chlorogenic acid concentration ([2]; Romaine) [µg/g],effect on chlorogenic acid concentration [2],chlorogenic acid concentration ([2]; iceberg) [µg/g],"duration of inhibition of pink rib development ([1]; melatonin 4.3 mM, Romaine, vs wounded control) [days]","duration of inhibition of pink rib development ([1]; melatonin 4.3 mM, iceberg, vs wounded control) [days]","pink rib discoloration (visual) ([1]; melatonin 4.3 mM, Romaine, over 5 d at 5° C. (P=0.0058))","effect on pink rib discoloration ([1]; melatonin 4.3 mM, 5 d at 5° C., vs controls)"
N[C@@H](CS)C(=O)O [L-cysteine],negligible effect on reducing pink rib; also recorded: equal or greater discoloration; also recorded: significantly higher discoloration than the control after 5 d; also recorded: ineffective in reducing pink rib; also recorded: neither PPO activity nor pink rib expression were reduced,3.11,neither L-cysteine nor melatonin significantly reduced chlorogenic acid concentration,1.55,,,,
COc1ccc2[nH]cc(CCNC(C)=O)c2c1 [melatonin],,3.11,neither L-cysteine nor melatonin significantly reduced chlorogenic acid concentration; also recorded: neither enzyme activity (PAL or PPO) nor chlorogenic acid concentration were impacted; also recorded: did not significantly affect PAL or PPO enzyme activities nor formation of chlorogenic acid,1.55,3,5,slight (2=slight),equal to or similar to unwounded controls; also recorded: dramatically less pink rib discoloration
